The values below come from ChEMBL document CHEMBL5108078, “Design and Synthesis of Phenyl Sulfide-Based Cationic Amphiphiles as Membrane-Targeting Antimicrobial Agents against Gram-Positive Pathogens” (J Med Chem, 2022).

≈ marks a conversion by molar mass, not a printed value. Calls of active or inactive are those of the source.

Series [1] can be described thus: Hemolytic activity in rabbit RBC incubated for 1 hr by microplate reader analysis. The series is classed as toxicity, cell-based, Oryctolagus cuniculus, Erythrocyte. Conditions: rabbit red blood cells (erythrocytes).
For series [2], the system named is Staphylococcus aureus. Put plainly: Antibacterial activity against Staphylococcus aureus ATCC 29213 assessed as inhibition of bacterial growth incubated for 24 hrs by microbroth dilution method. The series is classed as functional.
Series [3] deals with Staphylococcus aureus. Put plainly: Antibacterial activity against methicillin resistant Staphylococcus aureus N315 assessed as inhibition of bacterial growth incubated for 24 hrs by microbroth dilution method. It counts as functional. (In general: In broth dilution the organism is exposed to a series of concentrations in liquid medium.)
For series [4], the system named is Staphylococcus aureus. Put plainly: Antibacterial activity against methicillin resistant Staphylococcus aureus NCTC10442 assessed as inhibition of bacterial growth incubated for 24 hrs by microbroth dilution method. The series is classed as functional.
The next series concerns Bacillus subtilis. Put plainly: Antibacterial activity against Bacillus subtilis CMCC63501 assessed as inhibition of bacterial growth incubated for 24 hrs by microbroth dilution method. It counts as functional.
In series [5] the test system is Staphylococcus epidermidis. Put plainly: Antibacterial activity against Staphylococcus epidermidis ATCC 12228 assessed as inhibition of bacterial growth incubated for 24 hrs by microbroth dilution method. It counts as functional.
Series [6] deals with Staphylococcus epidermidis. Put plainly: Antibacterial activity against Staphylococcus epidermidis CMCC26069 assessed as inhibition of bacterial growth incubated for 24 hrs by microbroth dilution method. It counts as functional.
In the next series the test system is Enterococcus faecalis. Put plainly: Antibacterial activity against Enterococcus faecalis ATCC 29212 assessed as inhibition of bacterial growth incubated for 24 hrs by microbroth dilution method. The series is classed as functional.
Series [7] has as its system Staphylococcus aureus. Put plainly: Antibacterial activity against Staphylococcus aureus ATCC 29213 assessed as inhibition of bacterial growth in presence of 20 umol/L Fe2+ (reference value: […] microg/ml). The series is classed as functional.
In series [8] the test system is Staphylococcus aureus. Put plainly: Bactericidal activity against Staphylococcus aureus ATCC 29213 at 4 to 8 times MIC after 0.5 hrs by time kill assay. It counts as functional.
Series [9] relates to Staphylococcus aureus. Put plainly: Bactericidal activity against Staphylococcus aureus ATCC 29213 at 4 to 8 times MIC after 24 hrs by time kill assay. It counts as functional, organism-based.
Series [10] has as its system Staphylococcus aureus. Put plainly: Antibacterial activity against Staphylococcus aureus ATCC 29213 assessed as inhibition of bacterial growth in presence of 140 mmol/L Na+ (reference value: […] microg/ml). It counts as functional.
The test system of series [11] is Staphylococcus aureus. Put plainly: Antibacterial activity against Staphylococcus aureus ATCC 29213 assessed as inhibition of bacterial growth in presence of 4.5 mmol/L K+ (reference value: […] microg/ml). It counts as functional.
The test system of series [12] is Staphylococcus aureus. Put plainly: Antibacterial activity against Staphylococcus aureus ATCC 29213 assessed as inhibition of bacterial growth in presence of 2.50 mmol/L Ca2+ (reference value: […] microg/ml). The series is classed as functional.
Series [13] concerns Staphylococcus aureus. Put plainly: Antibacterial activity against Staphylococcus aureus ATCC 29213 assessed as inhibition of bacterial growth in presence of 1.00 mmol/L Mg2+ (reference value: […] microg/ml). It counts as functional.
Series [14] has as its system Staphylococcus aureus. Put plainly: Antibacterial activity against Staphylococcus aureus ATCC 29213 assessed as inhibition of bacterial growth in presence of 19 umol/L Zn2+ (reference value: […] microg/ml). The series is classed as functional.
The test system of series [15] is Staphylococcus aureus. Put plainly: Antibacterial activity against Staphylococcus aureus ATCC 29213 assessed as inhibition of bacterial growth in presence of 20 umol/L […] (reference value: […] microg/ml). It counts as functional.
Series [16] deals with Staphylococcus aureus. Put plainly: Antibacterial activity against methicillin resistant Staphylococcus aureus N315 assessed as inhibition of bacterial growth in presence of 140 mmol/L Na+ (reference value: […] microg/ml). It counts as functional.
In series [17] the test system is Staphylococcus aureus. Put plainly: Antibacterial activity against methicillin resistant Staphylococcus aureus N315 assessed as inhibition of bacterial growth in presence of 4.5 mmol/L K+ (reference value: […] microg/ml). It counts as functional.
Series [18] deals with Staphylococcus aureus. Put plainly: Antibacterial activity against methicillin resistant Staphylococcus aureus N315 assessed as inhibition of bacterial growth in presence of 2.50 mmol/L Ca2+ (reference value: […] microg/ml). The series is classed as functional.
Series [19] concerns Staphylococcus aureus. Put plainly: Antibacterial activity against methicillin resistant Staphylococcus aureus N315 assessed as inhibition of bacterial growth in presence of 1.00 mmol/L Mg2+ (reference value: […] microg/ml). It counts as functional.
The test system of series [20] is Staphylococcus aureus. Put plainly: Antibacterial activity against methicillin resistant Staphylococcus aureus N315 assessed as inhibition of bacterial growth in presence of 19 umol/L Zn2+ (reference value: […] microg/ml). It counts as functional.
Series [21] relates to Staphylococcus aureus. Put plainly: Antibacterial activity against methicillin resistant Staphylococcus aureus N315 assessed as inhibition of bacterial growth in presence of 20 umol/L Fe2+ (reference value: […] microg/ml). The series is classed as functional.
The subject of series [22] is Staphylococcus aureus. Put plainly: Antibacterial activity against methicillin resistant Staphylococcus aureus N315 assessed as inhibition of bacterial growth in presence of 20 umol/L […] (reference value: […] microg/ml). The series is classed as functional.
For series [23], the system named is Staphylococcus aureus. Put plainly: Antibacterial activity against methicillin resistant Staphylococcus aureus NCTC10442 assessed as inhibition of bacterial growth in presence of 140 mmol/L Na+ (reference value: […] microg/ml). The series is classed as functional.
The test system of series [24] is Staphylococcus aureus. Put plainly: Antibacterial activity against methicillin resistant Staphylococcus aureus NCTC10442 assessed as inhibition of bacterial growth in presence of 4.5 mmol/L K+ (reference value: […] microg/ml). It counts as functional.
The subject of series [25] is Staphylococcus aureus. Put plainly: Antibacterial activity against methicillin resistant Staphylococcus aureus NCTC10442 assessed as inhibition of bacterial growth in presence of 2.50 mmol/L Ca2+ (reference value: […] microg/ml). The series is classed as functional.
Series [26] relates to Staphylococcus aureus. Put plainly: Antibacterial activity against methicillin resistant Staphylococcus aureus NCTC10442 assessed as inhibition of bacterial growth in presence of 1.00 mmol/L Mg2+ (reference value: […] microg/ml). The series is classed as functional.
Series [27] relates to Staphylococcus aureus. Put plainly: Antibacterial activity against methicillin resistant Staphylococcus aureus NCTC10442 assessed as inhibition of bacterial growth in presence of 19 umol/L Zn2+ (reference value: […] microg/ml). It counts as functional.
Series [28] relates to Staphylococcus aureus. Put plainly: Antibacterial activity against methicillin resistant Staphylococcus aureus NCTC10442 assessed as inhibition of bacterial growth in presence of 20 umol/L Fe2+ (reference value: […] microg/ml). The series is classed as functional.
The test system of series [29] is Staphylococcus aureus. Put plainly: Antibacterial activity against methicillin resistant Staphylococcus aureus NCTC10442 assessed as inhibition of bacterial growth in presence of 20 umol/L […] (reference value: […] microg/ml). It counts as functional.
The subject of series [30] is Cell membrane. Put plainly: Induction of cell membrane disruption in Staphylococcus aureus ATCC 29213 assessed as increase in fluorescence intensity measured for 100 mins by SYTOX green assay. As to conditions: DDE = dose-dependent effect. It counts as subcellular.
Series [31] relates to Cell membrane. Put plainly: Induction of cell membrane disruption in methicillin resistant Staphylococcus aureus NCTC10442 assessed as increase in fluorescence intensity measured for 100 mins by SYTOX green assay. It counts as subcellular. Conditions: DDE = dose-dependent effect.
A short description of series [32]: Displacement of BODIPY-TR-cadaverine from Lipoteichoic acid at 4 times MIC preincubated with LTA for 15 mins followed by compound addition and measured for 30 mins by fluorescence based microplate reader assay. Conditions: time 45.0 min.
A short description of series [33]: Displacement of BODIPY-TR-cadaverine from Lipoteichoic acid preincubated with LTA for 15 mins followed by compound addition and measured for 30 mins by fluorescence based microplate reader assay. As to conditions: time 45.0 min; DDE = dose-dependent effect.
In series [34] the test system is Cell membrane. Put plainly: Disruption of membrane integrity in Staphylococcus aureus ATCC 29213 assessed as cell membrane damage at 8 times MIC incubated for 2 hrs by Live/dead staining based laser confocal microscopy analysis. The series is classed as subcellular.
In series [35] the test system is Staphylococcus aureus. Put plainly: Induction of morphological changes in Staphylococcus aureus ATCC 29213 assessed as perforation at 8 times MIC incubated for 2 hrs by TEM analysis. It counts as functional, organism-based.
The nature of series [36]: Cytotoxicity against mouse NCTC clone 929 cells assessed as cell viability at 50 ug/ml after 24 hrs by CCK8 assay. It counts as toxicity, cell-based. Conditions: at 50 µg/mL, read-out: Activity. (In general: Tetrazolium dyes change colour on reduction, which living cells bring about.)
Series [37] is described as follows: Cytotoxicity against human HEK293 cells assessed as cell viability at 50 ug/ml after 24 hrs by CCK8 assay. Conditions: at 50 µg/mL, read-out: Activity. The series is classed as toxicity, cell-based.
Series [38] deals with Staphylococcus aureus. Put plainly: Antibacterial activity against Staphylococcus aureus ATCC 29213 infected in mouse corneal infection model assessed as log reduction in bacterial load at 5 mg/ml pre-infected with bacteria for 24 hrs followed by compound administered four times a day for 3 consecutive weeks. It counts as functional. Conditions: time 3 weeks.
Series [39] concerns Staphylococcus aureus. Put plainly: Antibacterial activity against Staphylococcus aureus ATCC 15981 assessed as inhibition of bacterial growth incubated for 24 hrs by microbroth dilution method. It counts as functional.
For series [40], the system named is Staphylococcus aureus. Put plainly: Antibacterial activity against Staphylococcus aureus ATCC 29213 infected in mouse corneal infection model assessed as log reduction in bacterial load at 50 mg/ml pre-infected with bacteria for 24 hrs followed by compound administered four times a day for 3 consecutive weeks. It counts as functional. Conditions: time 3 weeks.

Broadly, the HC50 is the concentration that lyses half of the red blood cells. Low readings indicate more damage to red cells, high ones less damage to red cells. In general, MIC refers to the smallest concentration in the dilution series that meets the test's criterion for growth inhibition. With `COC(=O)[C@H](CCCNC(=N)N)NC(=O)COc1ccc(C(C)(C)CC(C)(C)C)cc1Sc1cc(C(C)(C)CC(C)(C)C)ccc1OCC(=O)N[C@@H](CCCNC(=N)N)C(=O)OC`, the 50% haemolytic concentration (HC50) at 1 h in series [1] was over 200 µg/mL. In addition, the MIC was found to be 1.56 µg/mL (≈ 1.73 µM) in the series on Staphylococcus aureus [2]; 0.78 µg/mL (≈ 0.867 µM) in the series on Staphylococcus aureus [3]; 0.78 µg/mL (≈ 0.867 µM) with Staphylococcus aureus [4]; 0.78 µg/mL (≈ 0.867 µM) with Bacillus subtilis; 0.39 µg/mL (≈ 0.434 µM) in series [5]; 0.39 µg/mL (≈ 0.434 µM) in series [6]. Moreover, the MIC amounted to 0.78 µg/mL (≈ 0.867 µM) in the series with Enterococcus faecalis; 0.78 µg/mL with Staphylococcus aureus [7]; 1.56 µg/mL with Staphylococcus aureus [10]; 1.56 µg/mL in the series with Staphylococcus aureus [11]; 1.56 µg/mL in the series with Staphylococcus aureus [12]; 1.56 µg/mL in the series on Staphylococcus aureus [13]. In addition, the MIC was 0.78 µg/mL with Staphylococcus aureus [14]; 0.78 µg/mL in the series with Staphylococcus aureus [15]; 0.39 µg/mL in the series on Staphylococcus aureus [16]; 0.78 µg/mL in the series with Staphylococcus aureus [17]; 0.78 µg/mL with Staphylococcus aureus [18]; 0.78 µg/mL with Staphylococcus aureus [19]. The MIC in the series with Staphylococcus aureus [20], with Staphylococcus aureus [21], in the series on Staphylococcus aureus [22], in the series with Staphylococcus aureus [23], with Staphylococcus aureus [24] and with Staphylococcus aureus [25] was 0.78 µg/mL in each case. The minimal inhibitory concentration (MIC) in the series on Staphylococcus aureus [26] was found to be 0.78 µg/mL; in the series on Staphylococcus aureus [27] it was 0.78 µg/mL; in the series on Staphylococcus aureus [28], 0.78 µg/mL; in the series on Staphylococcus aureus [29] it was 0.78 µg/mL; in the series with Staphylococcus aureus [39], 0.78 µg/mL (≈ 0.867 µM). For the same compound, the Activity is 99.99% in the series on Staphylococcus aureus [8]; “Dde” in the series with Cell membrane [30]; “Dde” with Cell membrane [31]; 62.2% in [32]; “Dde” in series [33]. The outcome in the series with Staphylococcus aureus [9], with Cell membrane [34] and with Staphylococcus aureus [35] was Active. Besides, the viability at 24 h, 50 ug/ml in [36] amounted to 53.1%; in series [37], 55.9%. The “log(activity)” value in the series on Staphylococcus aureus [38] came out at 6.81.
For `CN[C@H](CC(C)C)C(=O)N[C@H]1C(=O)N[C@@H](CC(N)=O)C(=O)N[C@H]2C(=O)N[C@H]3C(=O)N[C@H](C(=O)N[C@H](C(=O)O)c4cc(O)cc(O)c4-c4cc3ccc4O)[C@H](O)c3ccc(c(Cl)c3)Oc3cc2cc(c3O[C@@H]2O[C@H](CO)[C@@H](O)[C@H](O)[C@H]2O[C@H]2C[C@](C)(N)[C@H](O)[C@H](C)O2)Oc2ccc(cc2Cl)[C@H]1O` [VANCOMYCIN], the MIC in the series with Staphylococcus aureus [2] turned out to be 0.78 µg/mL (≈ 0.538 µM); with Staphylococcus aureus [3], 1.56 µg/mL (≈ 1.08 µM); in the series on Staphylococcus aureus [4], 0.78 µg/mL (≈ 0.538 µM). For the same compound, the “log(activity)” value in the series on Staphylococcus aureus [40] came to 5.21.
